Assay results as given in patent US11717508B2, “Compounds, compositions, and methods for inhibiting bacterial growth” (priority 2016, dated 2023).
“Also recorded” adds a separate entry of the source. Like-named read-outs stand apart in the source and are kept apart here.

Columns and labels:
[1] = tested on: CDC1551(hspX′:GFP) reporter; experiment: microbe, parasite or virus in culture; type: cell-based, Mycobacterium tuberculosis; settings: for EC50: Mycobacterium tuberculosis, read-out: EC50 of inhibition of CDC1551(hspX′:GFP) reporter (dosR-dependent GFP) fluorescence
[2] = tested on: Mtb; experiment: microbe, parasite or virus in culture; type: cell-based; settings: Mycobacterium tuberculosis, read-out: growth inhibition EC50
[3] = tested on: DosR regulon genes (dosR, hspX and tgs1); experiment: NO and vitamin C sensitivity assays (RT-PCR); type: cell-based, Mycobacterium tuberculosis
[4] = biological target: T1, DosS (Mycobacterium tuberculosis, UniProt P9WGK3); type: biochemical
T1 sequence (P9WGK3 whole entry): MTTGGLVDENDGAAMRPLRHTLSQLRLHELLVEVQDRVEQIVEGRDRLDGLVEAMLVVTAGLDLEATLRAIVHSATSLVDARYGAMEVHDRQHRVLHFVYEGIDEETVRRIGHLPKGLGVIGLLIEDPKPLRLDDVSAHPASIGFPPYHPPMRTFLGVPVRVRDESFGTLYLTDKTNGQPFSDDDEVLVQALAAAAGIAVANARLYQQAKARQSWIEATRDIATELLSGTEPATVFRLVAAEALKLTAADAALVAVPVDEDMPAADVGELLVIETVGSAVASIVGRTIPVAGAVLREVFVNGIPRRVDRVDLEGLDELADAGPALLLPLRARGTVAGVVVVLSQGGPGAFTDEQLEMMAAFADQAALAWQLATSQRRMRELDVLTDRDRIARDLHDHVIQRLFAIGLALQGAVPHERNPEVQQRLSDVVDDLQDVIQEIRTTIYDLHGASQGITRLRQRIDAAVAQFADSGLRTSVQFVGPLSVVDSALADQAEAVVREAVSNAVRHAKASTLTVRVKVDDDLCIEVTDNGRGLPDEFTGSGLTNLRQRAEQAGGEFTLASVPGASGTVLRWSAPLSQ

[5] = biological target: T1, DosS; experiment: DosS autophosphorylation assay; type: biochemical
[6] = biological target: DosT (Mycobacterium tuberculosis, UniProt P9WGK1); experiment: DosT autophosphorylation assay; type: biochemical
Sequence of DosT (P9WGK1 whole entry): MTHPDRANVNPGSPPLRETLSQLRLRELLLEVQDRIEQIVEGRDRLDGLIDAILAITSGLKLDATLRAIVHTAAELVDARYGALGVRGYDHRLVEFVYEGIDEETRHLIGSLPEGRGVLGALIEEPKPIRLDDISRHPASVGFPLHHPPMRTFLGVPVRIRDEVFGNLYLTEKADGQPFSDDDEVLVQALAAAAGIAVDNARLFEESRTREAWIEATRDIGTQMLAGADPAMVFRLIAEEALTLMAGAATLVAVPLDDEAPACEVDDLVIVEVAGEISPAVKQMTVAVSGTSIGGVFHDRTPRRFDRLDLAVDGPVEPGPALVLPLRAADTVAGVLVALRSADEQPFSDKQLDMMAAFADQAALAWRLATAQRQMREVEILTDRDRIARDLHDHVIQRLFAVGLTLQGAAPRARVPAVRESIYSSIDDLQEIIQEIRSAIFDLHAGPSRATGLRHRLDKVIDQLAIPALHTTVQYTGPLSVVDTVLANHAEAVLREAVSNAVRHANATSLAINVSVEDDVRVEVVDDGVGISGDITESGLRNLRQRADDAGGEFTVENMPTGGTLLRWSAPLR

[7] = tested on: DosR regulon genes (dosR, hspX and tgs1); experiment: RT-PCR of DosR regulon genes under hypoxia; type: cell-based, Mycobacterium tuberculosis; settings: 6 days
[8] = biological target: T1, DosS; experiment: LC-MS analysis of DosS reaction samples for heme-artemisinin adducts; type: biochemical; settings: DosS treated with artemisinin vs DMSO
[9] = tested on: Mtb Erdman; settings: ERDMAN, 360 h

C[C@@H]1CC(C)(C)C[C@]2(C1)NC(=O)NC2=O (racemic) [HC102A, 7,7,9-trimethyl-1,3-diazaspiro[4.5]decane-2,4-dione]
activity of compound regenerated by organic synthesis [1]: confirmed to have the activity of the commercially sourced compounds
EC50 ([1]; 6 days of treatment): 12.4 µM
EC50 ([2]; 6 days, optical density, unit given as M): > 80 µM
repression of tgs1 transcript following treatment with DETA-NONOate ([3]; 80 μM pretreatment 24 h, 50 μM DETA-NONOate 2 h): 3 fold
repression of tgs1 transcript in vitamin C treated cells ([3]; 80 μM pretreatment 24 h, 2 mM vitamin C 2 h): 2 fold
inhibition of induction of DosR regulon (dosR, hspX, tgs1) by NO and vitamin C ([3]; pretreatment 24 h, induction 2 h): strongly inhibited the induction; also recorded: inhibited the induction of DosR regulon
effect on redox status of DosS heme ([4]; UV-visible spectra vs DMSO control): no impact on the redox status; also recorded: no effect in modulating redox status of DosS
IC50 ([5]; 1 hour incubation, read-out: IC50 of inhibition of DosS autophosphorylation): 1.9 µM
maximal inhibition of DosS autophosphorylation ([5]; dose response): ~60%
impact on DosT autophosphorylation ([6]; dose response, 1 hour): limited impact

C[C@@H]1CC[C@H]2[C@@H](C)C(=O)O[C@@H]3O[C@]4(C)CC[C@@H]1[C@]32OO4 [HC101A, artemisinin, reference compound]
inhibition of dosRS (real-time PCR) [7]: 37 fold
inhibition of hspX (real-time PCR) [7]: 51 fold
inhibition of tgs1 (real-time PCR) [7]: 166 fold
formation of heme-artemisinin adducts (LC-MS) [8]: alkylates the sensor kinase heme to form heme-artemisinin adducts

O=C(Nc1cccc(O)c1)c1cccc(NC(=O)c2cccs2)c1 [HC103A, N-[3-[(3 hydroxyphenyl)carbamoyl]phenyl]thiophene-2-carboxamide]
activity of compound regenerated by organic synthesis [1]: confirmed to have the activity of the commercially sourced compounds
EC50 ([1]; […]): 2.7 µM
EC50 ([2]; […]): > 80 µM
inhibition of induction of DosR regulon (dosR, hspX, tgs1) by NO and vitamin C [3]: strongly inhibited the induction; also recorded: inhibited the induction of DosR regulon
repression of tgs1 transcript following treatment with DETA-NONOate [3]: 50 fold
repression of tgs1 transcript in vitamin C treated cells [3]: 3 fold
effect on redox status of DosS heme [4]: no impact on the redox status; also recorded: no effect in modulating redox status of DosS
IC50 [5]: 0.5 µM
maximal inhibition of DosS autophosphorylation [5]: ~90%
IC50 [6]: ~5 µM
reduction of Mtb viability when treated with 5 μM INH [9]: ~50%
